Measurements from publication PMC7562955 (Nature Communications, 2020).

Target: T1, TLR7 (Homo sapiens, UniProt Q9NYK1)
T1 sequence (Q9NYK1 27-1049): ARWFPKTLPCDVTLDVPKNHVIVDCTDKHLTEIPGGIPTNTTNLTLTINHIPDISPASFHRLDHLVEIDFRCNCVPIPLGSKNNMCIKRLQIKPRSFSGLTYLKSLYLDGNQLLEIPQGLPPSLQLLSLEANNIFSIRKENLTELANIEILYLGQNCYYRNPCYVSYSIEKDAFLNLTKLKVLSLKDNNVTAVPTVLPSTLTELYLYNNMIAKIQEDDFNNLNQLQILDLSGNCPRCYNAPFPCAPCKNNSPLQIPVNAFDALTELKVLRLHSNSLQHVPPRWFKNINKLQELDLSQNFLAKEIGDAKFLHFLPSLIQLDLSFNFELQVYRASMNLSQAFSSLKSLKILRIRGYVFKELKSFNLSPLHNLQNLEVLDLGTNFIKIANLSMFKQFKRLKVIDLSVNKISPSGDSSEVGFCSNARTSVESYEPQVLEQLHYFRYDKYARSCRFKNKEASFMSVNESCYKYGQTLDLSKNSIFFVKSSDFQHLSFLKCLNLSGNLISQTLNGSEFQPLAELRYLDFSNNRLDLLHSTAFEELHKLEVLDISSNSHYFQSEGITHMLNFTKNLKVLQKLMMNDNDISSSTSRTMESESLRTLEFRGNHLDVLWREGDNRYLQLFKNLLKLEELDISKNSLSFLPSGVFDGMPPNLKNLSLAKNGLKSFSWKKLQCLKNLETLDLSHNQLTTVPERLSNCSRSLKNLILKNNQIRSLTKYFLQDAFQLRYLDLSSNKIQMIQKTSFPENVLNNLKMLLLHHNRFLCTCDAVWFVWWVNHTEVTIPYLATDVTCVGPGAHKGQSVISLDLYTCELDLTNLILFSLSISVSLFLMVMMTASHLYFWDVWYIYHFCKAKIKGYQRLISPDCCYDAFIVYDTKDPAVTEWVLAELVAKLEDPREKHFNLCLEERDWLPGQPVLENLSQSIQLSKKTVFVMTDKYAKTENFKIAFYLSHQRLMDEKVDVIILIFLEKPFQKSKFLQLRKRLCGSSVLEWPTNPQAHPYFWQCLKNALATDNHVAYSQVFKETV
Experiment: Dose-response relationship between antagonist and R848, human TLR7 reporter gene assay
Type: cell-based
Parameters: host or cells: HEK293 (TLR7/NF-κB/SEAPorter)
Description: Compounds were dissolved in dimethyl sulfoxide. Human TLR7 reporter cell line (Novus Biological) were seeded in 96-well microtiter plate (AGC techno glass) at 5 × 10^4 cells/well in DMEM (GIBCO) with 10% fetal bovine serum (GIBCO), and 10 μg ml^−1 Blastcidin S HCl (GIBCO) and incubated at 37 °C in 5% CO2. The plates were incubated over-night and then addition with various concentrations of compound. After 30 min, R848 (human TLR7/8 ligand) that was diluted with the medium was added, wherein final concentration was adjusted to 0.01, 0.03, 0.1, 0.3, 1, 3, 10, 30, 100, 300 and 1000 μM. The plates were then incubated an additional 20 ± 1 h at 37 °C in 5% CO2, and then the SEAP activity was measured as activation of human TLR7. The SEAP activity was evaluated as follows: pNPP (Invitrogen) was added to the incubated sample (50 μl/well); after 15 min, 4 mol l^−1 sodium hydroxide solution (nacalai tesque) was added thereto (50 μl/well) to quench the reaction; and the absorbance of each sample was measured at 405 nm with microplate reader SpectraMax M4 (Molecular Devices).

## CCOc1nc(C)c2nc(-c3cncc(F)c3)n(Cc3ccc(CN4C[C@@H]5C[C@H]4CN5C)cc3)c2n1 [Cpd-7]
  mode of action against R848: acted as antagonists
Cpd-7 0.001 µM, log10[R848 (µM)] 0
  TLR7 reporter signal: 15.1994
Cpd-7 0.001 µM, log10[R848 (µM)] 0.477121
  TLR7 reporter signal: 53.0748
Cpd-7 0.001 µM, log10[R848 (µM)] 1
  TLR7 reporter signal: 91.3639
Cpd-7 0.001 µM, log10[R848 (µM)] 1.47712
  TLR7 reporter signal: 103.082
Cpd-7 0.001 µM, log10[R848 (µM)] 2
  TLR7 reporter signal: 104.508
Cpd-7 0.001 µM, log10[R848 (µM)] 2.47712
  TLR7 reporter signal: 104.681
Cpd-7 0.001 µM, log10[R848 (µM)] 3
  TLR7 reporter signal: 101.38
Cpd-7 0.001 µM, log10[R848 (µM)] -0.522879
  TLR7 reporter signal: 2.983
Cpd-7 0.001 µM, log10[R848 (µM)] -1
  TLR7 reporter signal: 1.3957
Cpd-7 0.001 µM, log10[R848 (µM)] -1.52288
  TLR7 reporter signal: 1.22
Cpd-7 0.001 µM, log10[R848 (µM)] -2
  TLR7 reporter signal: 0.09581
Cpd-7 0.003 µM, log10[R848 (µM)] 0
  TLR7 reporter signal: 11.9465
Cpd-7 0.003 µM, log10[R848 (µM)] 0.477121
  TLR7 reporter signal: 48.0206
Cpd-7 0.003 µM, log10[R848 (µM)] 1
  TLR7 reporter signal: 90.4952
Cpd-7 0.003 µM, log10[R848 (µM)] 1.47712
  TLR7 reporter signal: 102.689
Cpd-7 0.003 µM, log10[R848 (µM)] 2
  TLR7 reporter signal: 104.173
Cpd-7 0.003 µM, log10[R848 (µM)] 2.47712
  TLR7 reporter signal: 102.967
Cpd-7 0.003 µM, log10[R848 (µM)] 3
  TLR7 reporter signal: 101.934
Cpd-7 0.003 µM, log10[R848 (µM)] -0.522879
  TLR7 reporter signal: 2.073
Cpd-7 0.003 µM, log10[R848 (µM)] -1
  TLR7 reporter signal: 1.332
Cpd-7 0.003 µM, log10[R848 (µM)] -1.52288
  TLR7 reporter signal: 1.335
Cpd-7 0.003 µM, log10[R848 (µM)] -2
  TLR7 reporter signal: -0.4152
Cpd-7 0.01 µM, log10[R848 (µM)] 3
  TLR7 reporter signal: 101.214
Cpd-7 0.1 µM, log10[R848 (µM)] 0
  TLR7 reporter signal: 3.483
Cpd-7 0.1 µM, log10[R848 (µM)] 0.477121
  TLR7 reporter signal: 8.9858
Cpd-7 0.1 µM, log10[R848 (µM)] 1
  TLR7 reporter signal: 46.2209
Cpd-7 0.1 µM, log10[R848 (µM)] 1.47712
  TLR7 reporter signal: 89.5722
Cpd-7 0.1 µM, log10[R848 (µM)] 2
  TLR7 reporter signal: 103.066
Cpd-7 0.1 µM, log10[R848 (µM)] 2.47712
  TLR7 reporter signal: 105.195
Cpd-7 0.1 µM, log10[R848 (µM)] 3
  TLR7 reporter signal: 99.2702
Cpd-7 0.1 µM, log10[R848 (µM)] -0.522879
  TLR7 reporter signal: 1.691
Cpd-7 0.1 µM, log10[R848 (µM)] -1
  TLR7 reporter signal: 1.377
Cpd-7 0.1 µM, log10[R848 (µM)] -1.52288
  TLR7 reporter signal: 1.495
Cpd-7 0.1 µM, log10[R848 (µM)] -2
  TLR7 reporter signal: -0.1134
Cpd-7 0.3 µM, log10[R848 (µM)] 0
  TLR7 reporter signal: 1.803
Cpd-7 0.3 µM, log10[R848 (µM)] 0.477121
  TLR7 reporter signal: 3.628
Cpd-7 0.3 µM, log10[R848 (µM)] 1
  TLR7 reporter signal: 15.5922
Cpd-7 0.3 µM, log10[R848 (µM)] 1.47712
  TLR7 reporter signal: 56.9825
Cpd-7 0.3 µM, log10[R848 (µM)] 2
  TLR7 reporter signal: 94.1266
Cpd-7 0.3 µM, log10[R848 (µM)] 2.47712
  TLR7 reporter signal: 104.981
Cpd-7 0.3 µM, log10[R848 (µM)] 3
  TLR7 reporter signal: 99.9984
Cpd-7 0.3 µM, log10[R848 (µM)] -0.522879
  TLR7 reporter signal: 2.988
Cpd-7 0.3 µM, log10[R848 (µM)] -1
  TLR7 reporter signal: 1.0827
Cpd-7 0.3 µM, log10[R848 (µM)] -1.52288
  TLR7 reporter signal: 0.3928
Cpd-7 0.3 µM, log10[R848 (µM)] -2
  TLR7 reporter signal: -0.2667
Cpd-7 1 µM, log10[R848 (µM)] 0
  TLR7 reporter signal: 1.865
Cpd-7 1 µM, log10[R848 (µM)] 0.477121
  TLR7 reporter signal: 1.87
Cpd-7 1 µM, log10[R848 (µM)] 1
  TLR7 reporter signal: 3.318
Cpd-7 1 µM, log10[R848 (µM)] 1.47712
  TLR7 reporter signal: 15.4645
Cpd-7 1 µM, log10[R848 (µM)] 2
  TLR7 reporter signal: 58.664
Cpd-7 1 µM, log10[R848 (µM)] 2.47712
  TLR7 reporter signal: 94.6679
Cpd-7 1 µM, log10[R848 (µM)] 3
  TLR7 reporter signal: 98.5819
Cpd-7 1 µM, log10[R848 (µM)] -0.522879
  TLR7 reporter signal: 2.201
Cpd-7 1 µM, log10[R848 (µM)] -1
  TLR7 reporter signal: 1.343
Cpd-7 1 µM, log10[R848 (µM)] -1.52288
  TLR7 reporter signal: 0.6276
Cpd-7 1 µM, log10[R848 (µM)] -2
  TLR7 reporter signal: -0.3625
Cpd-7 3 µM, log10[R848 (µM)] 0
  TLR7 reporter signal: 1.3957
Cpd-7 3 µM, log10[R848 (µM)] 0.477121
  TLR7 reporter signal: 2.034
Cpd-7 3 µM, log10[R848 (µM)] 1
  TLR7 reporter signal: 1.935
Cpd-7 3 µM, log10[R848 (µM)] 1.47712
  TLR7 reporter signal: 4.379
Cpd-7 3 µM, log10[R848 (µM)] 2
  TLR7 reporter signal: 17.1093
Cpd-7 3 µM, log10[R848 (µM)] 2.47712
  TLR7 reporter signal: 59.4864
Cpd-7 3 µM, log10[R848 (µM)] 3
  TLR7 reporter signal: 88.3569
Cpd-7 3 µM, log10[R848 (µM)] -0.522879
  TLR7 reporter signal: 2.494
Cpd-7 3 µM, log10[R848 (µM)] -1
  TLR7 reporter signal: 1.782
Cpd-7 3 µM, log10[R848 (µM)] -1.52288
  TLR7 reporter signal: 0.9374
Cpd-7 3 µM, log10[R848 (µM)] -2
  TLR7 reporter signal: -0.1469
Cpd-7 10 µM, log10[R848 (µM)] 0
  TLR7 reporter signal: 1.161
Cpd-7 10 µM, log10[R848 (µM)] 0.477121
  TLR7 reporter signal: 1.935
Cpd-7 10 µM, log10[R848 (µM)] 1
  TLR7 reporter signal: 1.487
Cpd-7 10 µM, log10[R848 (µM)] 1.47712
  TLR7 reporter signal: 2.632
Cpd-7 10 µM, log10[R848 (µM)] 2
  TLR7 reporter signal: 3.275
Cpd-7 10 µM, log10[R848 (µM)] 2.47712
  TLR7 reporter signal: 13.6775
Cpd-7 10 µM, log10[R848 (µM)] 3
  TLR7 reporter signal: 50.3984
Cpd-7 10 µM, log10[R848 (µM)] -0.522879
  TLR7 reporter signal: 2.055
Cpd-7 10 µM, log10[R848 (µM)] -1
  TLR7 reporter signal: 1.301
Cpd-7 10 µM, log10[R848 (µM)] -1.52288
  TLR7 reporter signal: 0.4759
Cpd-7 10 µM, log10[R848 (µM)] -2
  TLR7 reporter signal: -0.6883
Cpd-7 30 µM, log10[R848 (µM)] 0
  TLR7 reporter signal: 1.6017
Cpd-7 30 µM, log10[R848 (µM)] 0.477121
  TLR7 reporter signal: 2.2708
Cpd-7 30 µM, log10[R848 (µM)] 1
  TLR7 reporter signal: 2.316
Cpd-7 30 µM, log10[R848 (µM)] 1.47712
  TLR7 reporter signal: 3.334
Cpd-7 30 µM, log10[R848 (µM)] 2
  TLR7 reporter signal: 2.078
Cpd-7 30 µM, log10[R848 (µM)] 2.47712
  TLR7 reporter signal: 2.285
Cpd-7 30 µM, log10[R848 (µM)] 3
  TLR7 reporter signal: 8.593
Cpd-7 30 µM, log10[R848 (µM)] -0.522879
  TLR7 reporter signal: 2.676
Cpd-7 30 µM, log10[R848 (µM)] -1
  TLR7 reporter signal: 1.493
Cpd-7 30 µM, log10[R848 (µM)] -1.52288
  TLR7 reporter signal: 0.7617
Cpd-7 30 µM, log10[R848 (µM)] -2
  TLR7 reporter signal: -0.5701
Cpd-7 100 µM, log10[R848 (µM)] 0
  TLR7 reporter signal: 1.319
Cpd-7 100 µM, log10[R848 (µM)] 0.477121
  TLR7 reporter signal: 2.528
Cpd-7 100 µM, log10[R848 (µM)] 1
  TLR7 reporter signal: 1.127
Cpd-7 100 µM, log10[R848 (µM)] 1.47712
  TLR7 reporter signal: 2.558
Cpd-7 100 µM, log10[R848 (µM)] 2
  TLR7 reporter signal: 1.63
Cpd-7 100 µM, log10[R848 (µM)] 2.47712
  TLR7 reporter signal: 1.53
Cpd-7 100 µM, log10[R848 (µM)] 3
  TLR7 reporter signal: 0.3114
Cpd-7 100 µM, log10[R848 (µM)] -0.522879
  TLR7 reporter signal: 1.865
Cpd-7 100 µM, log10[R848 (µM)] -1
  TLR7 reporter signal: 1.004
Cpd-7 100 µM, log10[R848 (µM)] -1.52288
  TLR7 reporter signal: 0.5685
Cpd-7 100 µM, log10[R848 (µM)] -2
  TLR7 reporter signal: -0.7138
